Like-named read-outs stand apart in the source and are kept apart here.
Assays:
[1] = Mouse liver microsome stability assay; format: in vitro ADME; conditions: for half life, mouse liver microsomes: NADPH; for MLM t1/2: Table 16
Method: (§1) A typical assay mixture contained either mouse or rat liver microsomes (0.5 mg of protein), […] potassium phosphate buffer (pH 7.4), 40 μM test compounds, 0.5 mM NADP+, 0.5 mM glucose-6-phosphate, 5 IU/mL glucose-6-phosphate dehydrogenase, 1 mg/mL diethylenetriaminepentaacetic acid (DETAPAC) and 5 mM MgCl2 in a final incubation volume of 0.1 mL. After 0, 10, 25, 40 and […], the incubations were stopped by the addition of 1 ml CH2Cl2/2-propanol (3:1 v:v). The mixture was centrifuged at 12,000×g for 1 min, and the organic layer was separated from the aqueous fraction. The organic fraction was evaporated with a stream of argon and the residue was taken up in methanol (200 μL) and injected into the HPLC system described above.
(§2) Microsomal incubations (final volume 0.25 mL) with the SSRIs, dual PDE4 inhibitor/SSRIs or PDE4 inhibitor was done with an HPLC assay as described above. Diluted stocks of either mouse, human or rat liver microsomes (0.5 mg of protein), […] potassium phosphate buffer (pH 7.4), 0.5 mM NADI)^+, 0.5 mM glucose-6-phosphate, 5 IU/mL glucose-6-phosphate dehydrogenase, 0.6 mM DETAPAC, and 3 mM MgC12 were combined and placed on ice. For a metabolic stability assay, either vehicle or 40 μM test compound was added and the incubation was initiated at 37° C. with constant shaking. After 0, 10, 25, 40 and 60 min, the incubations were stopped by the addition of 1 mL CH2Cl2/2-propanol (3:1, v:v). After thorough mixing, the organic layer was separated from the aqueous portion by centrifugation at 12,000×g. The organic material was evaporated with a stream of argon. The residue was dissolved in methanol (200 μL) and the sample was analyzed by HPLC.

[2] = Rat liver microsome stability assay; format: in vitro ADME
Method: as §1
as §2, with “After 0, 10, 25, 40 and 60 min, the incubations were stopped by the addition of 1 mL CH2Cl2/2-propanol (3:1, v:v). After thorough mixing, the organic layer was separated from the aqueous portion by centrifugation at 12,000×g. The organic material was evaporated with a stream of argon.” left out

GRK2 = biological target: T1, GRK2 (Homo sapiens, UniProt P25098); assay: High throughput KinaseGlo kinase assay; format: biochemical
T1 construct: host or cells: gift of a collaborator (Professor Benovic, Thomas Jefferson University)
T1 sequence (P25098 1-689): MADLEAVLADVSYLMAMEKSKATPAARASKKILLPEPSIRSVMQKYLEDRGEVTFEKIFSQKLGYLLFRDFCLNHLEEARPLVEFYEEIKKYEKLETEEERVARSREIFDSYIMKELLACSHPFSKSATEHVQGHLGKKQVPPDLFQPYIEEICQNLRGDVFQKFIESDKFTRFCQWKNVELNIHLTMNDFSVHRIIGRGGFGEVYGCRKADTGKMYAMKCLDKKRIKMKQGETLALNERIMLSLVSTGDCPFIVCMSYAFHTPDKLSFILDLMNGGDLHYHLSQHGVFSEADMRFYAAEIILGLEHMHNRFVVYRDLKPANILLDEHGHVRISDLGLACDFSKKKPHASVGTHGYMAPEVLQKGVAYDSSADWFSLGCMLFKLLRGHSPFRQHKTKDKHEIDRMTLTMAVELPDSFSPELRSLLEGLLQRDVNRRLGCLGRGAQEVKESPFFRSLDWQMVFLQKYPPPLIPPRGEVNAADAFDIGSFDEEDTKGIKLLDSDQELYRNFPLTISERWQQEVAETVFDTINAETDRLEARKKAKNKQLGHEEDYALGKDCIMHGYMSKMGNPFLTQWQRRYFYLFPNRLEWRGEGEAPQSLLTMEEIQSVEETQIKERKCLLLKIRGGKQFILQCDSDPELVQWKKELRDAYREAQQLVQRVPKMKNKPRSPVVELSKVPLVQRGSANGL
Description: A homogenous KinaseGlo assay was developed and conducted in a 96-well format. Briefly, the assay design allowed large numbers of tests to be done in a high throughput fashion using a 96-well plate reader system. The KinaseGlo assay involved transfer of γ-phosphate from [γ^33P]ATP by GRK2 to tubulin.

mice = assay: Morris water maze test; format: in vivo, mouse; conditions: 3 mg/kg, compared to control mice
Method: Compounds 19 and 115 were tested in a Morris water maze test. The escape latency (time to climb onto a hidden platform) for each mouse was recorded as a memory test. […] Compared to a group of control mice, compound 19 and 115 caused a 30% improvement in memory at 3 mg/kg. […] This is not completely unexpected as SSRIs often require repeated dosing to see a large and significant effect. […] Multiple dosing likely will increase the efficacy of the compounds tested.

rodent PDE4 = assay: Inhibition of rodent PDE4 (rolipram binding sites); conditions: Table 4
Method: IC50 values for inhibitor interaction with this site were calculated by nonlinear regression analysis of competition curves for unlabeled PDE4 inhibitors; Ki values were determined according to the method of Cheng and Prusoff (1973). […] Competition curves for the PDE4 inhibitors were subjected to nonlinear regression analysis and IC50 values with which the inhibitors bind to each of the binding sites was determined; K1 values were determined according to the method of Cheng and Prusoff (1973).

human PDE4D3 = biological target: T2, human PDE4D3 (Homo sapiens, UniProt Q08499); assay: Inhibition of cAMP hydrolysis by recombinant human PDE4D3; format: biochemical
T2 construct: made in house; host or cells: Cos 7 cells (construct and cells a gift from Dr. Conti, Stanford)
T2 sequence (Q08499 1-673 isoform Q08499-2): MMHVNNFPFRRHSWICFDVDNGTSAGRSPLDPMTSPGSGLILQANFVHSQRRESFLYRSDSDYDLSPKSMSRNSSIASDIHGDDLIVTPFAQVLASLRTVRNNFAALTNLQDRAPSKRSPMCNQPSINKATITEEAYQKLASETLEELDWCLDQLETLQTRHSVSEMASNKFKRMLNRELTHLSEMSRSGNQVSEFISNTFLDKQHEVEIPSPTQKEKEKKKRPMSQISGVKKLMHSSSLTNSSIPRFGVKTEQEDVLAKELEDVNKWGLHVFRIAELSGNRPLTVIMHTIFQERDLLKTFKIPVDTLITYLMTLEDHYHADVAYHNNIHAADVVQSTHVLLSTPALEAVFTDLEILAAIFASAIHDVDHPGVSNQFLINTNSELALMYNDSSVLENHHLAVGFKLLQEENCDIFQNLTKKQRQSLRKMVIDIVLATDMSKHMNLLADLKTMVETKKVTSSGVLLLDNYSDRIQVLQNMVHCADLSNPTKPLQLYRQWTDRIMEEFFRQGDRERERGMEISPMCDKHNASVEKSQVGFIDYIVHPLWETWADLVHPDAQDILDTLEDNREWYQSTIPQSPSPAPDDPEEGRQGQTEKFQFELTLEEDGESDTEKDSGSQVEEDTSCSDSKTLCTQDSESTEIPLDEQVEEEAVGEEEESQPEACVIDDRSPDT
Method: The PDE construct was transfected into Cos 7 cells in round culture dish (100×20 mm). The cells were then harvested and homogenized with lysis buffer. The crude homogenate was spun at maximum speed in a microfuge. The supernatant fluid was saved as an extract. […] The PDE construct and Cos 7 cells were a kind gift from Dr. Conti at the Stanford University School of Medicine.
(§3) PDE4 enzyme assays were carried out as described previously. Studies with recombinant PDE4 enzymes were carried out in the laboratory of Professor Marco Conti (Stanford University, Palo Alto, Calif.).

human PDE4B3 = biological target: T3, human PDE4B3 (Homo sapiens, UniProt Q07343); assay: Inhibition of cAMP hydrolysis by recombinant human PDE4B3; format: biochemical; conditions: Example 29
T3 construct: made in house
T3 sequence (Q07343 1-721 isoform Q07343-3): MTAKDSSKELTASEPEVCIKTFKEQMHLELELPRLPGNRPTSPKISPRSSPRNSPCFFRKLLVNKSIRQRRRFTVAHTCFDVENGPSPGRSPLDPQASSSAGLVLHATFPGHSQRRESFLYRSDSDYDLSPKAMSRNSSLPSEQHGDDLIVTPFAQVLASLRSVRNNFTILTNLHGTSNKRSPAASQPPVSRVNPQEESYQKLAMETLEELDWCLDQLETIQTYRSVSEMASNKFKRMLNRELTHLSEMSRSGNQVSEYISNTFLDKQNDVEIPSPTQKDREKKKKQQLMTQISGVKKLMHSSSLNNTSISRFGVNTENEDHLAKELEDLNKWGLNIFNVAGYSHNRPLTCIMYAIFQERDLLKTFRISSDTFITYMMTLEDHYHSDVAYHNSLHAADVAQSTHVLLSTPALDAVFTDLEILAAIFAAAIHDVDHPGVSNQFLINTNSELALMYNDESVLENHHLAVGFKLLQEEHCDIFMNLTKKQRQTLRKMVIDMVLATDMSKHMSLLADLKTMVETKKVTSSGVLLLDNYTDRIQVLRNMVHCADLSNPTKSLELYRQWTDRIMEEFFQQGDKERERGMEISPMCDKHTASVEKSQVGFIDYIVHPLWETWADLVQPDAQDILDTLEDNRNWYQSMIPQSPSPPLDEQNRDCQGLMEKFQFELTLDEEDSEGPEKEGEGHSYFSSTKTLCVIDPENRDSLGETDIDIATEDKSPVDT
Method: as §3

human PDE4A1 = biological target: T4, human PDE4A1 (Homo sapiens, UniProt P27815); assay: Inhibition of cAMP hydrolysis by recombinant human PDE4A1; format: biochemical
T4 construct: made in house
T4 sequence (P27815 1-647 isoform P27815-4): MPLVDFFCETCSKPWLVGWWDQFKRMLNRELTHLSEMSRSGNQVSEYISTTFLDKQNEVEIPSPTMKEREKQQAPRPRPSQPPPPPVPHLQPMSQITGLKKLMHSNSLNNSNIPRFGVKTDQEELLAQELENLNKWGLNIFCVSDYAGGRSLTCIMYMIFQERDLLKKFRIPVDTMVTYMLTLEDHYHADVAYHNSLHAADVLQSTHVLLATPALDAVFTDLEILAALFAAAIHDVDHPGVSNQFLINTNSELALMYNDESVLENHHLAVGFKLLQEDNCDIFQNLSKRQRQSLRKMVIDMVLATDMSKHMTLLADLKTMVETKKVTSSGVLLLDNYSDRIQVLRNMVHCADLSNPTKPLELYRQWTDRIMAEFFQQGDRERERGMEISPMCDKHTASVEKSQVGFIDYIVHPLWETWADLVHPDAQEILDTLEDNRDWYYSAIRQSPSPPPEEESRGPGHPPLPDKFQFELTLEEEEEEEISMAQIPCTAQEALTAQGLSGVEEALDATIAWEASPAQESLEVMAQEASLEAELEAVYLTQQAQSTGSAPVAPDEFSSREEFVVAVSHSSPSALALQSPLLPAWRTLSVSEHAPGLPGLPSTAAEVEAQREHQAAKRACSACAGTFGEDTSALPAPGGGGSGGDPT
Method: as §3

Balb/c mice = assay: Forced-swim test in Balb/c mice; format: in vivo, mouse; conditions: i.p. 23, 5 and 1 hr prior; fluoxetine 10 mg/kg, 18k/l or 14 10 mg/kg, 21 1 mg/kg
Method: The study was conducted according to a standard operation procedure and in accordance with all Federal regulations. Water and food were freely available in the home cages. […] Mice were given a swimming pretest session, once a day for two successive days. […] During the pretest and test sessions, each mouse was placed for […] in a plastic cylinder (45 cm high×20 cm diameter), which was filled to a depth of 28 cm with water (23±1° C.). The duration of immobility, which was defined as floating in an upright position without additional activity other than that necessary for the animal to keep its head above water, was recorded. For the subchronic administration tests, the animals were separated as above and vehicle or chemicals were given by i.p. administration 23, 5 and 1 hr before the FST. The subchronic experiments were done similar to the study described above except for the pretest training that was not carried out.
Mice in the first session were treated with vehicle or the drugs acutely, whereas mice in the second sessions were treated subchronically, i.e., vehicle or drugs were given i.p. 23, 5, and 1 hr before the FST. The experiment was performed similar to Experiment 1 except for the pretest training, which was not carried out in the second session.

ICR mice = assay: Forced-swim test in ICR mice; format: in vivo, mouse
Method: Forty male ICR mice, weighed 26.2±0.3 g, were housed in a temperature-controlled room (22-23° C.) and maintained on a 12-hour on 12-hour off light cycle (lights on at 6:00 AM). Water and food were freely available in the home cages. […] Saline containing the same percentage of DMSO was used as vehicle. The lower doses were tested followed by the larger doses 1 week later, when the mice were again randomly divided into four groups as described above. The forced-swim test (FST) was carried out as described previously. Mice were given a swimming pretest session, once a day for two successive days. Twenty-four hours after the last session, mice were injected vehicle or the lower dose of each test compound by the i.p. route 30 min prior to the FST. One week later, administration of the larger dose of each of the test compounds was repeated. During the pretest and test sessions, each mouse was placed for 6 min in a plastic cylinder (45 cm high×20 cm diameter), which was filled to a depth of 28 cm with water (23±1° C.). The duration of immobility, which was defined as floating in an upright position without additional activity other than that necessary for the animal to keep its head above water, was recorded.

[3] = Human liver microsome stability assay; format: in vitro ADME
Method: as §2

**Q.** With `CNCCC1CCC(CCc2cc(F)ccc2OC)O1` (stereo not shown) [Compound 24, (2-{5-[2-(5-Fluoro-2-methoxy-phenyl)-ethyl]-tetrahydro-furan-2-yl}-ethyl)-methyl-amine] as the compound, how does the “half life, mouse liver microsomes” value [1] read?
**A.** 0.967 h

**Q.** And the “MLM t1/2” value [1]?
**A.** 0.975 h

**Q.** And the “half life, rat liver microsomes” value ([2]; NADPH)?
**A.** 2.15 h

**Q.** And the “RLM t1/2” value ([2]; Table 16)?
**A.** 2.15 h

**Q.** With `COc1ccc(F)cc1CCC1CCC(CCN)O1` (stereo not shown) [Compound 28] as the compound, how does the “GRK2 stimulation or inhibition” value (GRK2) read?
**A.** potent stimulators of GRK2

**Q.** What about the “improvement in memory (escape latency)” value (mice) of the same compound?
**A.** ~10%

**Q.** With `NC1CC1c1cccnc1` (stereo not shown) [2-(pyridine-3-yl)cyclopropanamine] as the compound, how does the “GRK2 stimulation or inhibition” value (GRK2) read?
**A.** potent stimulators of GRK2

**Q.** What does the source list for `COc1ccc(F)cc1CCC1CCC(CCNCCCCCN2N=C(c3ccc(OC)c(OC)c3)C3CC=CCC3C2=O)O1` (racemic) [Compound 21, 4-(3,4-Dimethoxy-phenyl)-2-[5-(2-{5-[2-(5-fluoro-2-methoxy-phenyl)-ethyl]-thtrahydro-furan-2-yl}-ethylamino)-pentyl]-4,5,8,8a-tetrahydro-2H-phthalazin-1-one]?
**A.** pIC50 (rodent PDE4): 6.6; PDE4A1/PDE4D3 inhibitory selectivity ratio (human PDE4D3): < 500 fold; PDE4B3/PDE4D3 inhibitory selectivity ratio (human PDE4D3): 100 fold; Ki (human PDE4D3; Example 29, read-out: Ki, human PDE4D3): 2 nM; Ki (human PDE4B3): 199 nM; Ki (human PDE4A1; Example 29, read-out: Ki, human PDE4A1): > 1000 nM; Ki (human PDE4A1; Table 14, read-out: Human PDE4A1 Ki): < 1000 nM; immobility, forced-swim test, subchronic (Balb/c mice): did not change immobility; immobility, forced-swim test, acute, higher dose (ICR mice; 3 mg/kg i.p., vs vehicle, P<0.05): significantly reduced immobility; duration of immobility, forced-swim test, acute (ICR mice; 0.3 and 3 mg/kg i.p.): decreased duration of immobility in a dose-dependent manner; efficacy relative to fluoxetine on a molar basis (ICR mice; 21 0.5 μmol/kg vs fluoxetine 65 μmol/kg): 129 fold; half life, mouse liver microsomes [1]: 2.57 h; MLM t1/2 [1]: 2.565 h; metabolism in human liver microsomes ([3]; NADPH, up to 60 min): not detectably metabolized; half-life at 40 μM ([3]; human, liver microsomes, pH 7.4, Table 16, read-out: HLM t1/2): > 1 h

Source: patent US20130123253A1, “MODULATORS OF CENTRAL NERVOUS SYSTEM NEUROTRANSMITTERS” (HUMAN BIOMOLECULAR RESEARCH INSTITUTE, priority 2004, published 2013)
